#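 Cells were grown in 96-well plates and exposed to each compound for 48 hours at five concentrations; endpoints were interpolated linearly between bracketing concentrations, or set to the highest concentration if not reached. The concentration for full growth arrest is given as TGI.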
# What was measured:
# Assay in all cases: DTP human tumour cell line panel, 48 h
# 786-0 renal = tested on: 786-0 renal
# A498 renal = tested on: A498 renal
# A549 NSCLC = tested on: A549 NSCLC
# ACHN renal = tested on: ACHN renal
# BT-549 breast = tested on: BT-549 breast
# CAKI-1 renal = tested on: CAKI-1 renal
# CCRF-CEM leukemia = tested on: CCRF-CEM leukemia
# COLO 205 colon = tested on: COLO 205 colon
# DU-145 prostate = tested on: DU-145 prostate
# EKVX NSCLC = tested on: EKVX NSCLC
# HCT-116 colon = tested on: HCT-116 colon
# HCT-15 colon = tested on: HCT-15 colon
# HL-60(TB) leukemia = tested on: HL-60(TB) leukemia
# HOP-62 NSCLC = tested on: HOP-62 NSCLC
# HOP-92 NSCLC = tested on: HOP-92 NSCLC
# HS 578T breast = tested on: HS 578T breast
# HT29 colon = tested on: HT29 colon
# K-562 leukemia = tested on: K-562 leukemia
# KM12 colon = tested on: KM12 colon
# LOX IMVI melanoma = tested on: LOX IMVI melanoma
# M14 melanoma = tested on: M14 melanoma
# MALME-3M melanoma = tested on: MALME-3M melanoma
# MCF7 breast = tested on: MCF7 breast
# MDA-MB-231 breast = tested on: MDA-MB-231 breast
# MDA-MB-435 = tested on: MDA-MB-435
# MDA-N = tested on: MDA-N
# MOLT-4 leukemia = tested on: MOLT-4 leukemia
# NCI-H226 lung = tested on: NCI-H226 lung
# NCI-H460 lung = tested on: NCI-H460 lung
# NCI-H522 lung = tested on: NCI-H522 lung
# NCI/ADR-RES ovarian = tested on: NCI/ADR-RES ovarian
# OVCAR-3 ovarian = tested on: OVCAR-3 ovarian
# OVCAR-4 ovarian = tested on: OVCAR-4 ovarian
# OVCAR-5 ovarian = tested on: OVCAR-5 ovarian
# OVCAR-8 ovarian = tested on: OVCAR-8 ovarian
# PC-3 prostate = tested on: PC-3 prostate
# RPMI-8226 leukemia = tested on: RPMI-8226 leukemia
# RXF 393 renal = tested on: RXF 393 renal
# SF-268 CNS = tested on: SF-268 CNS
# SF-295 CNS = tested on: SF-295 CNS
# SF-539 CNS = tested on: SF-539 CNS
# SK-MEL-2 melanoma = tested on: SK-MEL-2 melanoma
# SK-MEL-28 melanoma = tested on: SK-MEL-28 melanoma
# SK-MEL-5 melanoma = tested on: SK-MEL-5 melanoma
# SK-OV-3 ovarian = tested on: SK-OV-3 ovarian
# SN12C renal = tested on: SN12C renal
# SNB-19 CNS = tested on: SNB-19 CNS
# SR leukemia = tested on: SR leukemia
# SW-620 colon = tested on: SW-620 colon
# TK-10 renal = tested on: TK-10 renal
# U251 CNS = tested on: U251 CNS
# UACC-257 melanoma = tested on: UACC-257 melanoma
# UACC-62 melanoma = tested on: UACC-62 melanoma
# UO-31 renal = tested on: UO-31 renal
compound,measurement,setting,value
COc1cc2c(cc1OCCCN1CCOCC1)N=C[C@@H]1CCCN1C2=O,TGI,786-0 renal,> 100 µM
same,TGI,A498 renal,30.1 µM
same,TGI,A549 NSCLC,> 100 µM
same,TGI,ACHN renal,92 µM
same,TGI,BT-549 breast,> 100 µM
same,TGI,CAKI-1 renal,26.3 µM
same,TGI,CCRF-CEM leukemia,25.3 µM
same,TGI,COLO 205 colon,4.55 µM
same,TGI,DU-145 prostate,76.9 µM
same,TGI,EKVX NSCLC,47.1 µM
same,TGI,HCT-116 colon,54.3 µM
same,TGI,HCT-15 colon,74.2 µM
same,TGI,HL-60(TB) leukemia,29.6 µM
same,TGI,HOP-62 NSCLC,62.8 µM
same,TGI,HOP-92 NSCLC,7.4 µM
same,TGI,HS 578T breast,> 100 µM
same,TGI,HT29 colon,47.7 µM
same,TGI,K-562 leukemia,> 100 µM
same,TGI,KM12 colon,43.4 µM
same,TGI,LOX IMVI melanoma,> 100 µM
same,TGI,M14 melanoma,29.1 µM
same,TGI,MALME-3M melanoma,33.6 µM
same,TGI,MCF7 breast,> 100 µM
same,TGI,MDA-MB-231 breast,> 100 µM
same,TGI,MDA-MB-435,31 µM
same,TGI,MDA-N,97.5 µM
same,TGI,MOLT-4 leukemia,> 100 µM
same,TGI,NCI-H226 lung,65.9 µM
same,TGI,NCI-H460 lung,> 100 µM
same,TGI,NCI-H522 lung,3.97 µM
same,TGI,NCI/ADR-RES ovarian,> 100 µM
same,TGI,OVCAR-3 ovarian,8.08 µM
same,TGI,OVCAR-4 ovarian,40.1 µM
same,TGI,OVCAR-5 ovarian,59.9 µM
same,TGI,OVCAR-8 ovarian,98.3 µM
same,TGI,PC-3 prostate,72.4 µM
same,TGI,RPMI-8226 leukemia,5.83 µM
same,TGI,RXF 393 renal,8.13 µM
same,TGI,SF-268 CNS,> 100 µM
same,TGI,SF-295 CNS,42.1 µM
same,TGI,SF-539 CNS,22.3 µM
same,TGI,SK-MEL-2 melanoma,> 100 µM
same,TGI,SK-MEL-28 melanoma,29.1 µM
same,TGI,SK-MEL-5 melanoma,27.4 µM
same,TGI,SK-OV-3 ovarian,87.5 µM
same,TGI,SN12C renal,> 100 µM
same,TGI,SNB-19 CNS,> 100 µM
same,TGI,SR leukemia,39.8 µM
same,TGI,SW-620 colon,13.8 µM
same,TGI,TK-10 renal,> 100 µM
same,TGI,U251 CNS,> 100 µM
same,TGI,UACC-257 melanoma,78.9 µM
same,TGI,UACC-62 melanoma,29.2 µM
same,TGI,UO-31 renal,> 100 µM
